Test system: influenza viruses
Format: cell-based, influenza virus

Structure (SMILES): Cc1[nH]c2ccc(-c3nnc(SCC(=O)N4CCCC4)o3)cc2c1C [Compound A3]
- generation of A3-resistant influenza viruses: unsuccessful

Source: US9096585B2 (Icahn School of Medicine at Mount Sinai, priority 2010, dated 2015)
